# Experimental data from ChEMBL document CHEMBL4396937, “Synthesis of new triazole fused imidazo[2,1-b]thiazole hybrids with emphasis on Staphylococcus aureus virulence factors” (Bioorg Med Chem Lett, 2019).
# Activity calls are given as the source filed them. The calls are words filed in the database; no cut-off is given here.
# Tests used:
# [1] = test system: Bacillus subtilis; experiment: Antibacterial activity against Bacillus subtilis MTCC 121 assessed as reduction in bacterial growth incubated for 24 hrs by agar well diffusion method; assay type: functional; conditions: MTCC 121, 24 h
# [2] = test system: Staphylococcus aureus; experiment: Antibacterial activity against Staphylococcus aureus MLS-16 MTCC 2940 assessed as reduction in bacterial growth incubated for 24 hrs by agar well diffusion method; assay type: functional; conditions: MLS-16 MTCC 2940, 24 h
# [3] = test system: Micrococcus luteus; experiment: Antibacterial activity against Micrococcus luteus MTCC 2470 assessed as reduction in bacterial growth incubated for 24 hrs by agar well diffusion method; assay type: functional; conditions: MTCC 2470, 24 h
# [4] = test system: Staphylococcus aureus; experiment: Antibacterial activity against Staphylococcus aureus MTCC 96 assessed as reduction in bacterial growth incubated for 24 hrs by agar well diffusion method; assay type: functional; conditions: MTCC 96, 24 h
# [5] = test system: Escherichia coli; experiment: Antibacterial activity against Escherichia coli MTCC 739 assessed as reduction in bacterial growth incubated for 24 hrs by agar well diffusion method; assay type: functional; conditions: MTCC 739, 24 h
# [6] = test system: Pseudomonas aeruginosa; experiment: Antibacterial activity against Pseudomonas aeruginosa MTCC 2453 assessed as reduction in bacterial growth incubated for 24 hrs by agar well diffusion method; assay type: functional; conditions: MTCC 2453, 24 h
# [7] = test system: Raoultella planticola; experiment: Antibacterial activity against Klebsiella planticola MTCC 530 assessed as reduction in bacterial growth incubated for 24 hrs by agar well diffusion method; assay type: functional; conditions: MTCC 530, 24 h
# [8] = test system: Candida albicans; experiment: Antifungal activity against Candida albicans MTCC 3017 assessed as reduction in fungal growth incubated for 24 hrs by agar well diffusion method; assay type: functional; conditions: MTCC 3017, 24 h
# [9] = test system: Bacillus subtilis; experiment: Bactericidal activity against Bacillus subtilis MTCC 121 assessed as reduction in bacterial survival incubated for 24 hrs followed by transfer of microbial suspension to agar plates and measured at 24 hrs post transfer by agar well diffusion method; assay type: functional; conditions: MTCC 121, 24 h
# [10] = test system: Staphylococcus aureus; experiment: Bactericidal activity against Staphylococcus aureus MLS-16 MTCC 2940 assessed as reduction in bacterial survival incubated for 24 hrs followed by transfer of microbial suspension to agar plates and measured at 24 hrs post transfer by agar well diffusion method; assay type: functional; conditions: MLS-16 MTCC 2940, 24 h
# [11] = test system: Micrococcus luteus; experiment: Bactericidal activity against Micrococcus luteus MTCC 2470 assessed as reduction in bacterial survival incubated for 24 hrs followed by transfer of microbial suspension to agar plates and measured at 24 hrs post transfer by agar well diffusion method; assay type: functional; conditions: MTCC 2470, 24 h
# [12] = test system: Staphylococcus aureus; experiment: Bactericidal activity against Staphylococcus aureus MTCC 96 assessed as reduction in bacterial survival incubated for 24 hrs followed by transfer of microbial suspension to agar plates and measured at 24 hrs post transfer by agar well diffusion method; assay type: functional; conditions: MTCC 96, 24 h
# [13] = test system: Escherichia coli; experiment: Bactericidal activity against Escherichia coli MTCC 739 assessed as reduction in bacterial survival incubated for 24 hrs followed by transfer of microbial suspension to agar plates and measured at 24 hrs post transfer by agar well diffusion method; assay type: functional; conditions: MTCC 739, 24 h
# [14] = test system: Pseudomonas aeruginosa; experiment: Bactericidal activity against Pseudomonas aeruginosa MTCC 2453 assessed as reduction in bacterial survival incubated for 24 hrs followed by transfer of microbial suspension to agar plates and measured at 24 hrs post transfer by agar well diffusion method; assay type: functional; conditions: MTCC 2453, 24 h
# [15] = test system: Raoultella planticola; experiment: Bactericidal activity against Klebsiella planticola MTCC 530 assessed as reduction in bacterial survival incubated for 24 hrs followed by transfer of microbial suspension to agar plates and measured at 24 hrs post transfer by agar well diffusion method; assay type: functional; conditions: MTCC 530, 24 h
# [16] = test system: Candida albicans; experiment: Fungicidal activity against Candida albicans MTCC 3017 assessed as reduction in fungal survival incubated for 24 hrs followed by transfer of microbial suspension to agar plates and measured at 24 hrs post transfer by agar well diffusion method; assay type: functional; conditions: MTCC 3017, 24 h
# [17] = test system: Bacillus subtilis; experiment: Antibiofilm activity against Bacillus subtilis MTCC 121 assessed as inhibition of biofilm formation by crystal violet staining-based microtitre plate assay; assay type: functional, organism-based
# [18] = test system: Staphylococcus aureus; experiment: Antibiofilm activity against Staphylococcus aureus MLS-16 MTCC 2940 assessed as inhibition of biofilm formation by crystal violet staining-based microtitre plate assay; assay type: functional, organism-based
# [19] = test system: Micrococcus luteus; experiment: Antibiofilm activity against Micrococcus luteus MTCC 2470 assessed as inhibition of biofilm formation by crystal violet staining-based microtitre plate assay; assay type: functional, organism-based
# [20] = test system: Staphylococcus aureus; experiment: Antibiofilm activity against Staphylococcus aureus MTCC 96 assessed as inhibition of biofilm formation by crystal violet staining-based microtitre plate assay; assay type: functional, organism-based
# [21] = test system: Escherichia coli; experiment: Antibiofilm activity against Escherichia coli MTCC 739 assessed as inhibition of biofilm formation by crystal violet staining-based microtitre plate assay; assay type: functional, organism-based
# [22] = test system: Pseudomonas aeruginosa; experiment: Antibiofilm activity against Pseudomonas aeruginosa MTCC 2453 assessed as inhibition of biofilm formation by crystal violet staining-based microtitre plate assay; assay type: functional, organism-based
# [23] = test system: Raoultella planticola; experiment: Antibiofilm activity against Klebsiella planticola MTCC 530 assessed as inhibition of biofilm formation by crystal violet staining-based microtitre plate assay; assay type: functional, organism-based
# [24] = test system: MRC5; experiment: Cytotoxicity against human MRC5 cells assessed as reduction in cell viability incubated for 48 hrs by MTT assay; assay type: cell-based; conditions: MRC5, 48 h
# [25] = test system: Staphylococcus aureus; experiment: Antibiofilm activity against Staphylococcus aureus MTCC 96 assessed as disruption and cell damage at bactericidal MBC incubated for 48 hrs by FE-SEM analysis; assay type: functional, organism-based
# [26] = test system: Escherichia coli; experiment: Antibiofilm activity against Escherichia coli MTCC 739 assessed as inhibition of biofilm formation incubated for 48 hrs in presence of Staphylococcus aureus MTCC 96 by FE-SEM analysis; assay type: functional, organism-based; conditions: MTCC 739, 48 h
# [27] = test system: Escherichia coli; experiment: Antibiofilm activity against Escherichia coli MTCC 739 assessed as cell lysis with damaged membrane at bactericidal MBC incubated for 48 hrs by FE-SEM analysis; assay type: functional, organism-based
# [28] = test system: Staphylococcus aureus; experiment: Antibiofilm activity against Staphylococcus aureus MTCC 96 assessed as inhibition of biofilm formation incubated for 48 hrs in presence of Escherichia coli MTCC 739 by FE-SEM analysis; assay type: functional, organism-based; conditions: MTCC 96, 48 h
# [29] = test system: Staphylococcus aureus; experiment: Antibiofilm activity against Staphylococcus aureus MTCC 96 assessed as disruption of biofilm matrix with individual cell lysis at bactericidal MBC incubated for 48 hrs in presence of Escherichia coli MTCC 739 by FE-SEM analysis; assay type: functional, organism-based
# [30] = test system: Escherichia coli; experiment: Antibiofilm activity against Escherichia coli MTCC 739 assessed as disruption of biofilm matrix with individual cell lysis at bactericidal MBC incubated for 48 hrs in presence of Staphylococcus aureus MTCC 96 by FE-SEM analysis; assay type: functional, organism-based
compound,measurement,setting,value
O=C(c1cn(-c2ccc(Cl)cc2)nn1)c1c(-c2ccccc2)nc2sccn12,MIC,[1],3.9 µg/mL
same,MIC,[2],1.9 µg/mL
same,MIC,[3],3.9 µg/mL
same,MIC,[4],1.9 µg/mL
same,MIC,[5],1.9 µg/mL
same,MIC,[6],3.9 µg/mL
same,MIC,[7],3.9 µg/mL
same,MIC,[8],7.8 µg/mL
same,MBC,[9],7.8 µg/mL
same,MBC,[10],3.9 µg/mL
same,MBC,[11],7.8 µg/mL
same,MBC,[12],3.9 µg/mL
same,MBC,[13],3.9 µg/mL
same,MBC,[14],7.8 µg/mL
same,MBC,[15],7.8 µg/mL
same,MFC,[16],15.6 µg/mL
same,IC50,[17],11.4 µg/mL
same,IC50,[18],10.6 µg/mL
same,IC50,[19],11.2 µg/mL
same,IC50,[20],9.8 µg/mL
same,IC50,[21],10.3 µg/mL
same,IC50,[22],14.2 µg/mL
same,IC50,[23],14.6 µg/mL
same,IC50,[24],36.1 µg/mL
same,Activity,[25],Active
same,IC50,[26],14.3 µg/mL
same,Activity,[27],Active
same,IC50,[28],14.3 µg/mL
same,Activity,[29],Active
same,Activity,[30],Active
